Results as given in patent publication US20250375436A1, “SERDEXMETHYLPHENIDATE FOR TREATMENT OF IDIOPATHIC HYPERSOMNIA” (ZEVRA THERAPEUTICS, INC., priority 2024, published 2025).

Columns and labels:
Type in all cases: in vivo, human
[1] = Single oral dose of 240 mg serdexmethylphenidate in the morning or at night before bedtime, randomized crossover; plasma d-MPH PK by LC/MS-MS; conditions: evening vs morning dosing
Protocol: Heathy adult subjects received single oral doses of 240 mg serdexmethylphenidate, either in the morning or at night, just before bedtime, in a randomized crossover fashion with a washout of 6 days between treatments. Subjects went to bed and nighttime conditions were maintained after administration of the evening dose. Multiple blood PK samples and safety parameters were collected after each administration. d-MPH was measured with a validated LC/MS-MS method. A total of 15 subjects (9 males/6 females) were randomized with 14 completing both treatments.

adults with IH [2] = test: Phase 2 IH study: Epworth Sleepiness Scale (ESS); conditions: for ESS, Mean, Titration Baseline: before treatment; for ESS, Mean, Randomization Baseline (Week 5): end of open-label titration; for ESS, Difference in LS Mean (SE): SDX vs placebo, ANCOVA
Description: “Epworth Sleepiness Scale” or “ESS,” as it relates to the present technology, means a self-administered questionnaire with 8 questions. Respondents are asked to rate, on a 4-point scale (0-3), their usual chances of dozing off or falling asleep while engaged in eight different activities. Most people engage in those activities at least occasionally, although not necessarily every day. The ESS score (the sum of 8 item scores, 0-3) can range from 0 to 24. The higher the ESS score, the higher that person's average sleep propensity in daily life (ASP), or their ‘daytime sleepiness’. ESS score are generally interpreted as follows: 0-5, lower normal daytime sleepiness; 6-10 higher normal daytime sleepiness; 11-12, mild excessive daytime sleepiness; 13-15, moderate excessive daytime sleepiness; and 16-24, severe excessive daytime sleepiness. [https://epworthsleepinessscale.com/about-theess/]herein incorporated by reference.
(§1) A double-blind, placebo-controlled, randomized-withdrawal, dose-optimizing, multi-center study investigated the safety and efficacy of serdexmethylphenidate for the treatment of IH. Twenty-two (22) patients completed a 7-week study consisting of two parts. Part 1 of the trial comprised a five-week open-label titration phase during which patients were optimized to one of four total daily doses of serdexmethylphenidate (80, 160, 240, or 320 mg/day). About half the study participants were assigned to take the total daily dose of study drug once per day just before going to bed (QD dosing cohort). The other half was instructed to take half the daily dose of study drug in the morning after awakening and the second half of the daily dose just before going to bed (BID dosing cohort). The titration procedure during the 5-week open label period was conducted as follows: patient treatment was initiated with the lowest total daily dose (80 mg/day) regardless of dosing regimen. At subsequent clinical visits scheduled at intervals of about 1 week each, the dose of the patient was either decreased (except after the first week), maintained, or increased based on tolerability, clinical effect, and adverse events. Depending on the severities of any dose-limiting effects as determined by the clinician, the dose was decreased if possible or the patient was discontinued from the study. If the dose was tolerated by the patient and the clinician determined an opportunity to improve effectiveness, the dose of study drug was increased if possible. Otherwise, the dose was maintained in the subsequent week.
(§2) Part 2 of the trial comprised a two-week randomized (2:1), double-blind, withdrawal phase, during which two-thirds of the trial participants continued to receive their optimized dose while the remaining one-third received placebo. During the withdrawal phase, patients continued the same dosing regimen (QD or BID) they were assigned to at treatment initiation and adhered to during the titration phase.
(§3) Secondary efficacy endpoints included Excessive Daytime Sleepiness (EDS) assessed with the Epworth Sleepiness Scale (ESS). Additional secondary endpoints were based on the Idiopathic Hypersomnia Severity Scale (IHSS), daily rating of difficulty of waking up in the morning assessed with the Sleep Inertia Visual Analog Scale (SI-VAS), and rating of brain fog symptoms measured with an exploratory Brain Fog Scale (BFS). Scores on the ESS, IHSS, and BFS were based on a 1-week look-back period.
The minimally clinically important difference for the ESS scale is 2-3 points. The horizontal dashed line at an ESS score of 10 points marks the boundary between “normal” levels of daytime sleepiness and “excessive” levels of daytime sleepiness. Scores of 10 and less are generally considered “healthy” or “normal” levels of daytime sleepiness whereas scores greater than 10 are considered “excessive”.

adults with IH [3] = test: Phase 2 IH study: Sleep Inertia Visual Analog Scale (SI-VAS); conditions: for SI-VAS, Mean, Titration Baseline: before treatment; for SI-VAS, Mean, Randomization Baseline (Week 5): end of open-label titration; for SI-VAS, Difference in LS Mean (SE): SDX vs placebo, ANCOVA; for Decrease in mean SI-VAS score: 5-week titration period
Description: “Sleep Inertia Visual Analog Scale” or “SI-VAS,” as it relates to the present technology, is a psychometric response scale to assess how difficult it was for the patient to wake up in the morning. The SI-VAS is a unipolar scale anchored at 0 (“very easy”) and 100 (“very difficult”).
as §1, §2, §3
The SI-VAS is a unipolar scale anchored at 0 (“very easy”) and 100 (“very difficult”). The horizontal dashed line at an SI-VAS score of 50 points represents the midpoint between individuals finding it very easy to awaken and individuals finding it very difficult to awaken in the morning. SI-VAS Patients on the QD dosing schedule reported a decrease of about 33 points in mean SI-VAS score over the 5-week titration period while being treated with conjugate of d-methylphenidate, while patients on the BID dosing schedule reported a decrease in mean SI-VAS of about 24-30 points.

adults with IH [4] = test: Phase 2 IH study: Brain Fog Scale (BFS); conditions: for Brain Fog, Mean, Titration Baseline: before treatment; for Brain Fog, Mean, Randomization Baseline (Week 5): end of open-label titration; for Brain Fog, Difference in LS Mean (SE): SDX vs placebo, ANCOVA
Description: “Brain Fog Symptom Score” or “BFS” as it relates to the present technology, means the total score collected with a 19-item questionnaire asking the respondents to describe their mental state while experiencing “Brain Fog” during the last week. The currently recognized 19 mental states of BF include forgetful, difficulty thinking, difficulty focusing, cloudy, difficulty finding the right words/communicating, mental fatigue, slow, mind went blank, spacey, difficulty processing what others say, exhausted, easily distracted, difficulty processing words read, confused, annoyed, sleepy, lost, detached, thoughts moving too quickly. Each item is answered based on a 0 to 4-point Likert scale where 0 means “strongly disagree” and 4 means “strongly agree”.
as §1, §2, §3
The BFS scale is based on a 19 item questionnaire where each question is scored on a 0-4 Likert scale where a score of 0 means “strongly disagree”, a score of 2 means “neutral”, and a score of 4 means “strongly agree”. Possible BFS total scores range from 0 to 76. The horizontal dashed line at a BFS score of 38 points represents the total BFS score of for “neutral” responses to all 19 questions.

COC(=O)[C@H](c1ccccc1)[C@H]1CCCCN1C(=O)OC[n+]1cccc(C(=O)N[C@@H](CO)C(=O)O)c1 [SDX, serdexmethylphenidate]
Total plasma exposure to d-methylphenidate (AUC0-24h and AUCinf) [1]: similar | ESS, Mean Change from Randomization Baseline to Week 7 (adults with IH [2]; BID Cohort, SDX (N = 17)): 0.1 | ESS, Mean, End of Withdrawal Period (Week 7) (adults with IH [2]; BID Cohort, SDX (N = 17)): 7.6 | ESS, Mean, Titration Baseline (adults with IH [2]; BID Cohort, SDX (N = 17)): 16.5 | ESS, Mean, Randomization Baseline (Week 5) (adults with IH [2]; BID Cohort, SDX (N = 17)): 7.5 | ESS, Difference in LS Mean (SE) (adults with IH [2]; BID Cohort, p-value 0.005): −5.6 (1.88) | ESS, Mean Change from Randomization Baseline to Week 7 (adults with IH [2]; QD Cohort, SDX (N = 15)): 0.0 | ESS, Mean, End of Withdrawal Period (Week 7) (adults with IH [2]; QD Cohort, SDX (N = 15)): 7.5 | ESS, Mean, Titration Baseline (adults with IH [2]; QD Cohort, SDX (N = 15)): 16.9 | ESS, Mean, Randomization Baseline (Week 5) (adults with IH [2]; QD Cohort, SDX (N = 15)): 7.5 | ESS, Difference in LS Mean (SE) (adults with IH [2]; QD Cohort, p-value 0.818): 0.5 (2.07) | Decrease in mean ESS score (adults with IH [2]; both QD and BID cohorts, end of the 5-week titration period): 8-10 points | SI-VAS, Mean Change from Randomization Baseline to Week 7 (adults with IH [3]; BID Cohort, SDX (N = 17)): 1.1 | SI-VAS, Mean, End of Withdrawal Period (Week 7) (adults with IH [3]; BID Cohort, SDX (N = 17)): 49.0 | SI-VAS, Mean, Titration Baseline (adults with IH [3]; BID Cohort, SDX (N = 17)): 68.5 | SI-VAS, Mean, Randomization Baseline (Week 5) (adults with IH [3]; BID Cohort, SDX (N = 17)): 45.0 | SI-VAS, Difference in LS Mean (SE) (adults with IH [3]; BID Cohort, p-value 0.104): −10.0 (5.98) | Decrease in mean SI-VAS score (adults with IH [3]; BID dosing schedule): 24-30 points | SI-VAS, Mean Change from Randomization Baseline to Week 7 (adults with IH [3]; QD Cohort, SDX (N = 15)): 5.9 | SI-VAS, Mean, End of Withdrawal Period (Week 7) (adults with IH [3]; QD Cohort, SDX (N = 15)): 40.4 | SI-VAS, Mean, Titration Baseline (adults with IH [3]; QD Cohort, SDX (N = 15)): 68.8 | SI-VAS, Mean, Randomization Baseline (Week 5) (adults with IH [3]; QD Cohort, SDX (N = 15)): 35.1 | SI-VAS, Difference in LS Mean (SE) (adults with IH [3]; QD Cohort, p-value 0.208): 8.2 (6.39) | Decrease in mean SI-VAS score (adults with IH [3]; QD dosing schedule): about 33 points | Increase in mean SI-VAS score (adults with IH [3]; both QD and BID cohorts continuing treatment, 2-week withdrawal period): less than 6 points | Brain Fog, Mean Change from Randomization Baseline to Week 7 (adults with IH [4]; BID Cohort, SDX (N = 17)): 1.5 | Brain Fog, Mean, End of Withdrawal Period (Week 7) (adults with IH [4]; BID Cohort, SDX (N = 17)): 30.1 | Brain Fog, Mean, Titration Baseline (adults with IH [4]; BID Cohort, SDX (N = 17)): 52.4 | Brain Fog, Mean, Randomization Baseline (Week 5) (adults with IH [4]; BID Cohort, SDX (N = 17)): 28.6 | Brain Fog, Difference in LS Mean (SE) (adults with IH [4]; BID Cohort, p-value 0.060): −13.7 (7.07) | Brain Fog, Mean Change from Randomization Baseline to Week 7 (adults with IH [4]; QD Cohort, SDX (N = 15)): 0.9 | Brain Fog, Mean, End of Withdrawal Period (Week 7) (adults with IH [4]; QD Cohort, SDX (N = 15)): 28.5 | Brain Fog, Mean, Titration Baseline (adults with IH [4]; QD Cohort, SDX (N = 15)): 52.3 | Brain Fog, Mean, Randomization Baseline (Week 5) (adults with IH [4]; QD Cohort, SDX (N = 15)): 27.5 | Brain Fog, Difference in LS Mean (SE) (adults with IH [4]; QD Cohort, p-value 0.995): 0.0 (7.50) | Decrease in mean BFS score (adults with IH [4]; all patients, 5-week titration period): 19-25 points | Change in mean BFS score (adults with IH [4]; patients continuing treatment during the 2-week withdrawal period): no more than 1.5 points
